Consider three molecules from patent US20190240172A1, “PHARMACEUTICAL COMPOSITION FOR PREVENTING OR TREATING DIABETES AND/OR […] COMPRISING MIDODRINE OR PHARMACEUTICALLY ACCEPTABLE SALT THEREOF AS ACTIVE INGREDIENT” (Cellvertics Co., Ltd., priority 2016, published 2019).

Data set [1] concerns spontaneously hypertensive rat (SHR). Kind of data set: Cardiac function by M-mode echocardiography and heart rate in SHR. To be noted: for Diastolic left ventricular inner diameter / Diastolic left ventricular posterior wall / Diastolic left ventricular wall / Left ventricular ejection fraction / Left ventricular fractional shortening / Left ventricular mass measured by ASE / Systolic left ventricular inner diameter / left ventricular performance: 8-week-old SHR, echocardiography; for Diastolic left ventricular inner diameter / Diastolic left ventricular posterior wall / Diastolic left ventricular wall / Left ventricular ejection fraction / Left ventricular fractional shortening / Left ventricular mass measured by ASE / Systolic left ventricular inner diameter: 4 weeks in drinking water (midodrine 0.3 mg/kg/day, atenolol 1 mg/kg/day), mean ± SD; for left ventricular performance: compared with unadministered control group IV.

Data set [2] in a line: ATP level in tissue by ELISA. In kind it is in vivo, spontaneously hypertensive rat (SHR). The conditions noted are these: SHR, compared to control SHRs, FIG. 4. As for the experimental part: 0.02 g of liver tissue isolated from the rats of Example 1-2 was homogenized in 500 μL of PBS. The homogenate was centrifuged at 1500×g (or 5000 rpm) for 15 minutes and the supernatant was recovered. After adding 100 μL of standard materials or samples to adequate wells of a pre-coated microtiter plate, 10 μL of the remaining solution was added to the sample. After adding 50 μL of the conjugate to each well and then mixing, the plate was covered and incubation was conducted at 37° C. for 1 hour. After adding 50 μL of each of substrates A and B to each well, incubation was conducted at 37° C. for 15 minutes. After adding a stop solution to each well, optical density was measured at 450 nm using a microplate reader.
The ATP level in the heart, skeletal muscle and liver of basal 4-week-old rat (I), midodrine-administered rat (II), atenolol-administered rat (III) and unadministered 8-week-old control rat (IV) was measured by ELISA according to the method of Example 2-1.

Data set [3] has as its system HMG-CoA reductase protein (HMGCR). Kind of data set: Expression of HMG-CoA reductase protein in liver of SHR. In kind it is in vivo, spontaneously hypertensive rat (SHR). To be noted: among rat groups, FIG. 7.
A short description of data set [4]: Blood adiponectin by ELISA, normalized to visceral fat weight. The data set is classed as in vivo, spontaneously hypertensive rat (SHR). To be noted: SHR, 4 weeks in drinking water, mean ± SD. The text has this:
The measured adiponectin level was normalized to the visceral fat weight (g).
(In an ELISA, binding on a coated surface is turned into a signal by an enzyme label.)

Data set [5] can be described thus: Body weight, heart weight and abdominal fat weight in SHR. In kind it is in vivo, spontaneously hypertensive rat (SHR). On the procedure: Body weight was measured for the same rats whose cardiac function was measured.
When the body weight and the weight of abdominal fat (visceral fat) were measured for the midodrine-administered rat (II), atenolol-administered rat (III) and unadministered 8-week-old hypertensive control rat (IV) of Example 1-2, midodrine administration decreased both the body weight and abdominal fat as shown in FIG. 9.

The subject of data set [6] is mouse cardiac muscle cells (HL1). Kind of data set: Western blot of p-AMPK and PPAR-δ in midodrine-treated cardiac muscle cells. In kind it is cell-based. To be noted: FIG. 1. On the procedure:
(§1) The L6 and HL1 cells were grown in a medium (DMEM) containing 10% FBS (fetal bovine serum) and 1% antibiotic until about 80% confluence, and then the medium was replaced with a medium containing 1% FBS for differentiation for 4 days. The drug was treated on day 3 of differentiation. All in-vitro experiments using the L6 and HL1 cells were conducted 24 hours after the drug treatment.
(§2) In order to investigate the effect of α1-AR stimulation on AMPK and AMPK phosphorylation (activation) in vitro, the mouse skeletal muscle cells […] and the mouse cardiac muscle cells (HL1) cultured in Example 1-1 were treated with 30 μM of midodrine, which is an α1-AR agonist, and then western blot was conducted as described in Example 2-3.

For data set [7], the system named is SDH (succinate dehydrogenase). The experiment in a line: Enzymatic activity of SDH in skeletal muscle of SHR. The data set is classed as in vivo, spontaneously hypertensive rat (SHR). The conditions noted are these: among groups I-IV, FIG. 3A.
Description: After adding 10 μL of protease inhibitor cocktail per 1 mL of PBS (phosphate-buffered saline) to each well (500 μL), 410 μL of a culture solution prepared by mixing 1 M phosphate buffer (25 μL×25=625 μL), 0.2 M sodium succinate (125 μL×25=3125 μL), NBT (25 μL×25=625 μL) and D.W. (235 μL×25=5875 μL) per well was heated to 37° C. for 20 minutes. […] After conducting centrifugation at 13000 rpm and 4° C. for 5 minutes, the supernatant was recovered and transferred to a fresh tube. After adding 410 μL of a culture solution to a tube, enzymatic reaction was conducted by adding 90 μL of the sample. After adding 410 μL of distilled water (DW) to another tube and adding 90 μL of the sample, the absorbance of the dilute was measured. After adding the enzymatic reaction tube and the another tube in water bath at 37° C., respectively, reaction was conducted for 30 minutes. The reaction was terminated by putting the tube in ice. After adding 200 μL to each well of a 96-well plate, absorbance was measured at 550 nm. Then, the enzymatic activity of succinate dehydrogenase (SDH) was measured by the following equation.
Enzymatic activity=(absorbance of enzymatic reaction solution−absorbance of diluted enzymatic reaction solution)/protein content (Bradford 595 nm)
Another data set concerns preadipocytes (3T3-L1). The experiment in a line: Western blot of PPAR-δ, p-AMPK and PGC-1α in midodrine-treated adipocytes. In kind it is cell-based, mouse. The conditions noted are these: midodrine-treated adipocytes (3T3-L1), FIG. 8B. As for the experimental part:
(§3) The 3T3-L1 cells were grown in a medium (DMEM) containing 10% FBS (fetal bovine serum) and 1% antibiotic until 100% and then cultured for 48 hours after replacing the medium with a fresh medium. After adding a differentiation medium and the drug, the cells were cultured for 48 hours. The composition of the differentiation medium was as follows: 0.0125 μmol/mL dexamethasone, 12.5 μmol/mL 3-isobutyl-1-methylxanthine, 10 μg/mL insulin, 10% FBS. After treating with the differentiation medium for 48 hours, the medium was replaced with an insulin medium containing 10 μg/mL insulin and 10% FBS and then treated for 48-96 hours. Then, after replacing the medium with a normal medium containing 10% FBS only, the cells were cultured for 24-48 hours and then used for experiments.
In addition, when western blotting was conducted on the midodrine-treated adipocytes according to the method of Example 2-3, the expression of […], p-AMPK and PGC-1α proteins suppressing fat synthesis/accumulation was increased as shown in FIG. 8B.
Background: A western blot detects proteins with antibodies after separation by electrophoresis.

Data set [8] concerns mouse-derived preadipocytes (3T3-L1). The experiment in a line: Fat content in adipocytes observed by microscope. The data set is classed as cell-based. The conditions noted are these: FIG. 8A. As for the experimental part: as §3
The test system of data set [9] is AMPK/PPAR-δ/PGC1α proteins. Kind of data set: Western blot of AMPK, PPAR-δ and PGC-1α proteins in cardiac muscle, skeletal muscle, fat and liver of SHR.
For data set [10], the system named is mouse skeletal muscle cells (C2C12). Kind of data set: Western blot of p-AMPK and PPAR-δ in midodrine-treated skeletal muscle cells. In kind it is cell-based. To be noted: FIG. 1. As for the experimental part: as §1, §2
Another data set has as its system cytochrome c oxidase. The experiment in a line: Immunohistochemical staining for cytochrome c oxidase in skeletal muscle tissue of SHR. The conditions noted are these: among groups I-IV, FIG. 3B. The data set is classed as in vivo, spontaneously hypertensive rat (SHR).
Setting [11] is: 8-week-old SHR, 4 weeks in drinking water (midodrine 0.3 mg/kg/day, atenolol 1 mg/kg/day), mean ± SD.

Molecules are shown by their SMILES. Marks after values point to notes of the source that are not given here.

For `CC(C)NCC(O)COc1ccc(CC(N)=O)cc1` (stereo not shown) [Atenolol, atenolol], in [1], the “Diastolic left ventricular inner diameter” value was 6.33 ± 0.35^a mm, the “Diastolic left ventricular posterior wall” value was 1.67 ± 0.16 mm, the “Diastolic left ventricular wall” value was 1.50 ± 0.13^a mm and the “Left ventricular ejection fraction” value is 82.00 ± 5.31^a %. Also, in [1], the “Left ventricular fractional shortening” value is 45.70 ± 5.82^a %, the “Left ventricular mass measured by ASE” value was 1.10 ± 0.07^a g, the “Systolic left ventricular inner diameter” value was 3.43 ± 0.28^a mm and the left ventricular performance result was “higher”. For the same molecule, the heart rate entry in data set [1] (SHR from 4 weeks of age, measured over 1 month, at the end of the experiment, among three groups, FIG. 6) was “the lowest”. In data set [2], the “ATP level in heart tissue” value was “higher”. Also, in data set [3], the “expression level of HMG-CoA reductase protein (HMGCR) in the liver” value is “the lowest”. The “Adiponectin (serum level per weight of visceral fat)” value in data set [4] was 6136.5 ± 574.7^b,c ng/mL/g. For the same molecule, in data set [5] (setting [11]), the Body weight was 296.46 ± 16.73^b g and the Hear weight is reported as 1.47 ± 0.15^a g. Besides, the Body weight entry in data set [5] (8-week-old SHR, 4 weeks in drinking water (midodrine 0.3 mg/kg/day, atenolol 1 mg/kg/day), mean ± SD, listed as group III) is “the highest”.

`COc1ccc(OC)c(C(O)CNC(=O)CN)c1` (racemic) [Midodrine, (RS)—N-[2-(2,5-dimethoxyphenyl)-2-hydroxyethyl]glycinamide]: in data set [1], the “Diastolic left ventricular inner diameter” value is on record as 6.06 ± 0.42^a mm, the “Diastolic left ventricular posterior wall” value is 1.54 ± 0.13^a mm, the “Diastolic left ventricular wall” value is 1.46 ± 0.13^a mm and the “Left ventricular ejection fraction” value was 81.55 ± 6.12^a %. In data set [1], the “Left ventricular fractional shortening” value was 45.48 ± 6.25^a %, the “Left ventricular mass measured by ASE” value was determined as 1.04 ± 0.06 g, the “Systolic left ventricular inner diameter” value is 3.32 ± 0.54^a mm and the left ventricular performance entry is “higher”. In addition, in [1] (listed as group II), the “Left ventricular mass measured by ASE” value was “the lowest”. For the same molecule, in [1] (SHR, summary statement, no blood pressure method described), the “cardiac hypertrophy or further increase in blood pressure” value is listed as “without cardiac hypertrophy or further increase in blood pressure”. The “ATP level in heart tissue” value in data set [2] is recorded as “higher”. In addition, the “expression of PPAR-δ protein” value in data set [6] was “increases”. Further, in data set [6] (midodrine 30 μM), the “expression and phosphorylation of AMPK” value is “resulted in the expression and phosphorylation of AMPK”. The “expression level of HMG-CoA reductase protein (HMGCR) in the liver” value in [3] is given as “the lowest”. The “enzymatic activity of SDH in skeletal muscle” value in data set [7] was “the highest increase”. Besides, in the data set on preadipocytes (3T3-L1), the “expression of PGC-1α protein” value is given as “increased”, the “expression of PPAR-5 protein” value is given as “increased” and the “expression of p-AMPK protein” value was “increased”. The “Adiponectin (serum level per weight of visceral fat)” value in data set [4] is recorded as 7585.8 ± 182.3^b ng/mL/g. Moreover, the “Adiponectin (serum level per weight of visceral fat)” value in data set [4] (listed as group II) is reported as “remarkably higher”. Further, the “fat content in adipocytes” value in [8] (3T3-L1, 30 μM/L midodrine, microscope) was “decreased”. Besides, in data set [9] (4 weeks in drinking water, compared to control group IV, FIG. 2B), the “AMPK expression in cardiac muscle” value was “remarkably higher”. Also, the “AMPK expression in skeletal muscle” value in data set [9] (4 weeks in drinking water, compared to control group IV, FIG. 2C) is listed as “remarkably higher”. Further, the “AMPK expression in fat” value in [9] (4 weeks in drinking water, compared to control group IV, FIG. 2D) is reported as “remarkably higher”. Further, the “expression level of the phosphorylated AMPK protein in the liver” value in data set [9] (among groups I-IV, FIG. 2E) is recorded as “the highest”. Also, the “activation and expression of AMPK, PPAR-δ and PGC-1α in the heart, skeletal muscle and liver” value in data set [9] (summary statement) was “induces activation and increased expression”. Besides, the “expression of PPAR-δ protein” value in [10] is listed as “increases”. In [10] (midodrine 30 μM), the “expression of phosphorylated AMPK” value is “increased”. Further, the “cytochrome c oxidase immunohistochemical staining in skeletal muscle tissue” value in the data set with cytochrome c oxidase is “the highest increase”. Also, in data set [5] (setting [11]), the Body weight is 238.24 ± 11.69^a g and the Hear weight is 1.47 ± 0.16^a g. In data set [5] (SHR groups II, III and IV, FIG. 9 (A)), the Body weight entry is recorded as “decreased”. Moreover, the “weight of abdominal fat (visceral fat)” value in [5] (SHR groups II, III and IV, FIG. 9 (B)) is “decreased”.

With `COC(=O)c1sccc1S(=O)(=O)Nc1ccc(Nc2ccccc2)cc1OC` [GSK0660], the “effect on fat content in adipocytes when GSK0660 is added to midodrine” value in data set [8] (3T3-L1, 30 μM/L midodrine + 50 μM/L GSK0660 mixture (1:2 (w/w))) is listed as “the effect of midodrine was decreased”.
